Test results from EP4725505A1, “PROPHYLACTIC AND/OR THERAPEUTIC AGENT FOR SKIN DISORDER ASSOCIATED WITH HISTONE DEACETYLASE 4 ABNORMALITY” (National University Corporation Kobe University, priority 2023, dated 2025).

Tested on: HDAC4
Assay: Improving action on expression of HDAC4 in UV-B-irradiated XP-A-iMCs (RT-PCR)
Type: cell-based, human
Details: XP-A-iMCs irradiated with high-dose (150 J/m^2) UV-B, compound then added to cell medium, cultured for 24 hours, DMSO control
Experimental: The XP-A-iMCs were seeded into a 60-millimeter dish, and were irradiated with high-dose (150 J/m^2) UV-B when the XP-A-iMCs became about 70% confluent. […] After that, the expression of HDAC4 was recognized by using a RT-PCR method.
The XP-A-iMCs were seeded into a 60-millimeter dish, and were irradiated with high-dose (150 J/m^2) UV-B when the XP-A-iMCs became about 70% confluent.

In the case of CC1=NN(c2ccc(C(=O)O)cc2)C(=O)C1=Cc1ccc(-c2cc(C)c(C)cc2[N+](=O)[O-])o1 [C-646], the “expression of HDAC4” value is reported as “significantly recovered”.
